Measured values reported in US10723705B2, “Heterocyclic compounds and uses thereof” (Incyte Corporation, priority 2015, dated 2020).

Molecular target: Human recombinant Histone Deacetylase 8 (HDAC8) (Homo sapiens (Human), UniProt Q9BY41)
Assay: HDAC8 Enzymatic Assay (HDAC-Glo I/II luminescence)
Assay type: biochemical
Details: HDAC8; read-out: IC50
Description: HDAC-Glo™ I/II Assay Kit was purchased from Promega Corporation (Madison, Wis.), including the following components: HDAC-Glo I/II Buffer (25 mM Tris buffer, pH 8.0, supplemented with 137 mM: NaCl, 2.7 mM KCl, 1% v/v Triton X-100 and 1 mM: MgCl2), luminogenic substrates Boc-GAK(Ac)-aminoluciferin (HDAC-Glo I/II substrate), proprietary developer reagent (containing trypsin). Human recombinant Histone Deacetylase 8 (HDAC8) was purchased from Enzo Life Sciences (Plymouth Meeting, Pa.).
The HDAC8 reaction was performed at room temperature in white 384-well polystyrene, flat-bottom microtiter plate (Greiner Bio-one, Monroe, N.C.) in a final volume of 20 μL. Test compounds were first diluted serially in DMSO and 100 nL were transferred to the plate wells by Echo 550 (Labcyte, Sunnyvale, Calif.) before the addition of other reaction components. The final concentration of DMSO in the assay was 0.5%. The HDAC-Glo I/II assay reagent was prepared by rehydration of lyophilized HDAC-Glo I/II substrate in 10 mL. HDAC-Glo I/II assay buffer followed with the addition of 10 μL of developer reagent. 10 uL of 3 nM HDAC8 in the HDAC-Glo I/II assay buffer were first dispensed into the microliter plate containing the compounds and incubated at room temperature for 30 min. The reactions were initiated with the addition of 10 uL HDAC-Glo I/II assay reagent with Multidrop (Thermo, Waltham, Mass.). The final concentration of HDAC8 and HDAC-Glo I/II substrate in the reaction were 1.5 nM and 50 μM, respectively. The assay plate was mixed for 1 min by orbital shaking (500 rpm) and centrifuged for 1 min at 1500 rpm. After 15 min at room temperature, luminescence signals were measured on TopCount (Perkin Elmer). Wells with no compound served as the positive controls and wells containing no HDAC8 were used as negative controls. IC50 determination was performed by fitting the curve of percentage control activity versus the log of the compound concentration using the GraphPad Prism 6.0 software.

Sequence of Human recombinant Histone Deacetylase 8 (HDAC8) (Q9BY41 whole entry): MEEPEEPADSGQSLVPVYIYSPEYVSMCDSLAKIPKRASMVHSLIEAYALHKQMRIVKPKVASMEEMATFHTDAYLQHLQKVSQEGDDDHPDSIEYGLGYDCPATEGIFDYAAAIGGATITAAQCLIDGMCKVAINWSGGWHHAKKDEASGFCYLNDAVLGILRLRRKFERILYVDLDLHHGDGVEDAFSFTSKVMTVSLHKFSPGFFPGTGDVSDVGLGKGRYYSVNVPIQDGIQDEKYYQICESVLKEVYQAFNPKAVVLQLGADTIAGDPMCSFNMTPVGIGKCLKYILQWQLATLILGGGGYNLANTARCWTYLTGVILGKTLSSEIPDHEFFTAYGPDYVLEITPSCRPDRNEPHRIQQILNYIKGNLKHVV

| IC50 [nM] | Structure (SMILES) |
| --- | --- |
| 22 | O=C(NO)C(Cc1ccccc1)c1cnc2cc(Cl)ccn12 (stereo not drawn) [Compound I-0093, 2-(7-Chloroimidazo[1,2-a]pyridin-3-yl)-N-hydroxy-3-phenylpropanamide] |

Same assay, conditions: class symbols, Table 14; read-out: HDAC8 IC50

| IC50 [nM] | Structure (SMILES) |
| --- | --- |
| > 500 | O=C(NO)C(Cc1ccccc1)n1cc2c(Cl)nccc2n1 (stereo not drawn) [Compound I-0056, 2-(4-chloro-2H-pyrazolo[4,3-c]pyridin-2-yl)-N-hydroxy-3-phenylpropanamide] |
| 200 to 500 | O=C(NO)C(Cc1ccccc1)n1cc2c(-c3ccncc3)cccc2n1 (stereo not drawn) [Compound I-0058, N-hydroxy-3-phenyl-2-(4-(pyridin-4-yl)-2H-indazol-2-yl)propanamide] |
| > 500 | O=C(NO)C(Cc1ccccc1)n1cc2c(N3CCOCC3)cccc2n1 (stereo not drawn) [Compound I-0059, N-hydroxy-2-(4-morpholino-2H-indazol-2-yl)-3-phenylpropanamide] |
| > 500 | O=C(NO)C(Cc1ccccc1)n1cc2c(-c3ccccc3)cccc2n1 (stereo not drawn) [Compound I-0060, N-hydroxy-3-phenyl-2-(4-phenyl-2H-indazol-2-yl)propanamide] |
| 200 to 500 | Cn1nccc1-c1cccc2nn(C(Cc3ccccc3)C(=O)NO)cc12 (stereo not drawn) [Compound I-0061, N-hydroxy-2-(4-(1-methyl-1H-pyrazol-5-yl)-2H-indazol-2-yl)-3-phenylpropanamide] |
| > 500 | O=C(NO)C(Cc1ccccc1)n1cc2c(C3CC3)cccc2n1 (stereo not drawn) [Compound I-0062, 2-(4-cyclopropyl-2H-indazol-2-yl)-N-hydroxy-3-phenylpropanamide] |
| 200 to 500 | O=C(NO)C(Cc1ccccc1)n1cc2c(-c3cncnc3)cccc2n1 (stereo not drawn) [Compound I-0063, N-hydroxy-3-phenyl-2-(4-(pyrimidin-5-yl)-2H-indazol-2-yl)propanamide] |
| > 500 | Cc1cccc2nn(C(Cc3ccccc3)C(=O)NO)cc12 (stereo not drawn) [Compound I-0064, N-hydroxy-2-(4-methyl-2H-indazol-2-yl)-3-phenylpropanamide] |
| > 500 | CN1CCC(c2cccc3nn(C(Cc4ccccc4)C(=O)NO)cc23)CC1 (stereo not drawn) [Compound I-0065, N-hydroxy-2-(4-(1-methylpiperidin-4-yl)-2H-indazol-2-yl)-3-phenylpropanamide] |
| > 500 | O=C(NO)C(Cc1ccccc1)n1cc2cccc(-c3ccccc3)c2n1 (stereo not drawn) [Compound I-0066, N-hydroxy-3-phenyl-2-(7-phenyl-2H-indazol-2-yl)propanamide] |
| 50 to 200 | Cn1nccc1-c1cccc2cn(C(Cc3ccccc3)C(=O)NO)nc12 (stereo not drawn) [Compound I-0067, N-hydroxy-2-(7-(1-methyl-1H-pyrazol-5-yl)-2H-indazol-2-yl)-3-phenylpropanamide] |
| 200 to 500 | O=C(NO)C(Cc1ccccc1)n1cc2cccc(Br)c2n1 (stereo not drawn) [Compound I-0068, 2-(7-bromo-2H-indazol-2-yl)-N-hydroxy-3-phenylpropanamide] |
| 50 to 200 | Cn1nccc1-c1nccc2c1cnn2C(Cc1ccccc1)C(=O)NO (stereo not drawn) [Compound I-0069, N-hydroxy-2-(4-(1-methyl-1H-pyrazol-5-yl)-1H-pyrazolo[4,3-c]pyridin-1-yl)-3-phenylpropanamide] |
| 50 to 200 | O=C(NO)C(Cc1ccccc1)n1ncc2c(-c3ccncc3)nccc21 (stereo not drawn) [Compound I-0070, N-hydroxy-3-phenyl-2-(4-(pyridin-4-yl)-1H-pyrazolo[4,3-c]pyridin-1-yl)propanamide] |
| 50 to 200 | O=C(NO)C(Cc1ccccc1)n1ncc2c(-c3cncnc3)nccc21 (stereo not drawn) [Compound I-0071, N-hydroxy-3-phenyl-2-(4-(pyrimidin-5-yl)-1H-pyrazolo[4,3-c]pyridin-1-yl)propanamide] |
| 200 to 500 | Cn1nccc1-c1ccc2c(cnn2C(Cc2ccccc2)C(=O)NO)n1 (stereo not drawn) [Compound I-0072, N-hydroxy-2-(5-(1-methyl-1H-pyrazol-5-yl)-1H-pyrazolo[4,3-b]pyridin-1-yl)-3-phenylpropanamide] |
| 200 to 500 | O=C(NO)C(Cc1ccccc1)n1ncc2nc(-c3ccncc3)ccc21 (stereo not drawn) [Compound I-0073, N-hydroxy-3-phenyl-2-(5-(pyridin-4-yl)-1H-pyrazolo[4,3-b]pyridin-1-yl)propanamide] |
| 50 to 200 | O=C(NO)C(Cc1ccccc1)n1ncc2nc(-c3cncnc3)ccc21 (stereo not drawn) [Compound I-0074, N-hydroxy-3-phenyl-2-(5-(pyrimidin-5-yl)-1H-pyrazolo[4,3-b]pyridin-1-yl)propanamide] |

| IC50 [nM] | Structure (SMILES) |
| --- | --- |
| 200 to 500 | Cc1ccc2c(cnn2C(Cc2ccccc2)C(=O)NO)n1 (stereo not drawn) [Compound I-0075, N-hydroxy-2-(5-methyl-1H-pyrazolo[4,3-b]pyridin-1-yl)-3-phenylpropanamide] |
| 50 to 200 | O=C(NO)C(Cc1ccccc1)n1ncc2nc(Cl)ccc21 (stereo not drawn) [Compound I-0076, 2-(5-chloro-1H-pyrazolo[4,3-b]pyridin-1-yl)-N-hydroxy-3-phenylpropanamide] |
| > 500 | O=C(NO)C(Cc1ccccc1)n1cc2nc(Cl)ccc2n1 (stereo not drawn) [Compound I-0077, 2-(5-chloro-2H-pyrazolo[4,3-b]pyridin-2-yl)-N-hydroxy-3-phenylpropanamide] |
| > 500 | Cc1cccc2cn(C(Cc3ccccc3)C(=O)NO)nc12 (stereo not drawn) [Compound I-0078, N-hydroxy-2-(7-methyl-2H-indazol-2-yl)-3-phenylpropanamide] |
| > 500 | O=C(NO)C(Cc1ccccc1)n1ncc2c(-c3ccccc3)cccc21 (stereo not drawn) [Compound I-0079, N-hydroxy-3-phenyl-2-(4-phenyl-1H-indazol-1-yl)propanamide] |
| > 500 | NC(=O)c1ccc(-c2cccc3c2cnn3C(Cc2ccccc2)C(=O)NO)cc1 (stereo not drawn) [Compound I-0080, 4-(1-(1-(hydroxyamino)-1-oxo-3-phenylpropan-2-yl)-1H-indazol-4-yl)benzamide] |
| 50 to 200 | O=C(NO)C(Cc1ccccc1)n1ncc2c(-c3cncnc3)cccc21 (stereo not drawn) [Compound I-0081, N-hydroxy-3-phenyl-2-(4-(pyrimidin-5-yl)-1H-indazol-1-yl)propanamide] |
| 200 to 500 | O=C(NO)C(Cc1ccccc1)n1cc2cccc(C#CC3CC3)c2n1 (stereo not drawn) [Compound I-0082, 2-(7-(Cyclopropylethynyl)-2H-indazol-2-yl)-N-hydroxy-3-phenylpropanamide] |
| 50 to 200 | Cn1nccc1-c1cccc2c1cnn2C(Cc1ccccc1)C(=O)NO (stereo not drawn) [Compound I-0083, N-hydroxy-2-(4-(1-methyl-1H-pyrazol-5-yl)-1H-indazol-1-yl)-3-phenylpropanamide] |
| > 500 | Cc1cccc2c1cnn2C(Cc1ccccc1)C(=O)NO (stereo not drawn) [Compound I-0084, N-hydroxy-2-(4-methyl-1H-indazol-1-yl)-3-phenylpropanamide] |
| > 500 | O=C(NO)C(Cc1ccccc1)n1ncc2cc(-c3ccccc3)ncc21 (stereo not drawn) [Compound I-0086, N-hydroxy-3-phenyl-2-(5-phenyl-1H-pyrazolo[3,4-c]pyridin-1-yl)propanamide] |
| > 500 | O=C(NO)C(Cc1ccccc1)n1ncc2cc(-c3c(F)cccc3F)ncc21 (stereo not drawn) [Compound I-0087, 2-(5-(2,6-difluorophenyl)-1H-pyrazolo[3,4-c]pyridin-1-yl)-N-hydroxy-3-phenylpropanamide] |
| > 500 | N#Cc1ccc(-c2cc3cnn(C(Cc4ccccc4)C(=O)NO)c3cn2)cc1 (stereo not drawn) [Compound I-0088, 2-(5-(4-cyanophenyl)-1H-pyrazolo[3,4-c]pyridin-1-yl)-N-hydroxy-3-phenylpropanamide] |
| 200 to 500 | NC(=O)c1ccc(-c2cc3cnn(C(Cc4ccccc4)C(=O)NO)c3cn2)cc1 (stereo not drawn) [Compound I-0089, 4-(1-(1-(hydroxyamino)-1-oxo-3-phenylpropan-2-yl)-1H-pyrazolo[3,4-c]pyridin-5-yl)benzamide] |
| 200 to 500 | Cn1nccc1-c1cc2cnn(C(Cc3ccccc3)C(=O)NO)c2cn1 (stereo not drawn) [Compound I-0090, N-hydroxy-2-(5-(1-methyl-1H-pyrazol-5-yl)-1H-pyrazolo[3,4-c]pyridin-1-yl)-3-phenylpropanamide] |
| > 500 | Cn1cc(-c2cc3cnn(C(Cc4ccccc4)C(=O)NO)c3cn2)cn1 (stereo not drawn) [Compound I-0091, N-hydroxy-2-(5-(1-methyl-1H-pyrazol-4-yl)-1H-pyrazolo[3,4-c]pyridin-1-yl)-3-phenylpropanamide] |
| 200 to 500 | O=C(NO)C(Cc1ccccc1)n1ncc2cc(-c3cncnc3)ncc21 (stereo not drawn) [Compound I-0092, N-hydroxy-3-phenyl-2-(5-(pyrimidin-5-yl)-1H-pyrazolo[3,4-c]pyridin-1-yl)propanamide] |
| ≤ 50 | O=C(NO)C(Cc1ccccc1)c1cnc2cc(Cl)ccn12 (stereo not drawn) [Compound I-0093, 2-(7-Chloroimidazo[1,2-a]pyridin-3-yl)-N-hydroxy-3-phenylpropanamide] |

| Structure (SMILES) | IC50 [nM] |
| --- | --- |
| CN1CC=C(c2cccc3nn(C(Cc4ccccc4)C(=O)NO)cc23)CC1 (stereo not drawn) [Compound I-0057, N-hydroxy-2-(4-(1-methyl-1,2,3,6-tetrahydropyridin-4-yl)-2H-indazol-2-yl)-3-phenylpropanamide] | > 500 |
| CN1CC=C(c2cccc3c2cnn3C(Cc2ccccc2)C(=O)NO)CC1 (stereo not drawn) [Compound I-0085, N-hydroxy-2-(4-(1-methyl-1,2,3,6-tetrahydropyridin-4-yl)-1H-indazol-1-yl)-3-phenylpropanamide] | 200 to 500 |
